The target of one experiment is T1, MAGL (Mus musculus, UniProt O35678).
T1 construct: mouse brain membrane fraction or cell lysates for mouse assays; from tissue
T1 sequence (O35678 1-303): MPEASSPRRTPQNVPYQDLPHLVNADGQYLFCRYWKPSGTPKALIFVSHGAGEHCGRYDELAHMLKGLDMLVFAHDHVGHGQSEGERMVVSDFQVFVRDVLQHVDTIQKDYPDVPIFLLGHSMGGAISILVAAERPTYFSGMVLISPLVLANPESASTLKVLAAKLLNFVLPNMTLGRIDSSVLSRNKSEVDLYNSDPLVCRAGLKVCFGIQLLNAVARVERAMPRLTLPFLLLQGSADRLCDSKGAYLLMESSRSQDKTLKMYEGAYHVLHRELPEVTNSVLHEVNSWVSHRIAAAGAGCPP
Description: In vitro competitive activity-based protein profiling, mouse MAGL. Format: biochemical. The conditions noted are these: for inhibition at 1 µM: read-out: MAGL % inh. 1 μM (mouse); for inhibition at 10 µM: read-out: MAGL % inh. at 10 μM (mouse). As for the experimental part:
(§1) In Vitro Competitive Activity-Based Protein Profiling.
(§2) Proteomes (mouse brain membrane fraction or cell lysates for mouse assays; human prefrontal cortex or cell membrane fractions for human assays) (50 μL, 1.0 mg/mL total protein concentration) were preincubated with varying concentrations of inhibitors at 37° C. After 30 min, FP-Rh or HT-01 (1.0 μL, 50 μM in DMSO) was added and the mixture was incubated for another 30 min at 37° C. Reactions were quenched with SDS loading buffer (15 μL—4×) and run on SDS-PAGE. Following gel imaging, serine hydrolase activity was determined by measuring fluorescent intensity of gel bands corresponding to MAGL and FAAH using ImageJ 1.43u software.

A further experiment has as its target T2, FAAH (Mus musculus, UniProt O08914).
T2 construct: mouse brain membrane fraction or cell lysates for mouse assays; from tissue
T2 sequence (O08914 1-579): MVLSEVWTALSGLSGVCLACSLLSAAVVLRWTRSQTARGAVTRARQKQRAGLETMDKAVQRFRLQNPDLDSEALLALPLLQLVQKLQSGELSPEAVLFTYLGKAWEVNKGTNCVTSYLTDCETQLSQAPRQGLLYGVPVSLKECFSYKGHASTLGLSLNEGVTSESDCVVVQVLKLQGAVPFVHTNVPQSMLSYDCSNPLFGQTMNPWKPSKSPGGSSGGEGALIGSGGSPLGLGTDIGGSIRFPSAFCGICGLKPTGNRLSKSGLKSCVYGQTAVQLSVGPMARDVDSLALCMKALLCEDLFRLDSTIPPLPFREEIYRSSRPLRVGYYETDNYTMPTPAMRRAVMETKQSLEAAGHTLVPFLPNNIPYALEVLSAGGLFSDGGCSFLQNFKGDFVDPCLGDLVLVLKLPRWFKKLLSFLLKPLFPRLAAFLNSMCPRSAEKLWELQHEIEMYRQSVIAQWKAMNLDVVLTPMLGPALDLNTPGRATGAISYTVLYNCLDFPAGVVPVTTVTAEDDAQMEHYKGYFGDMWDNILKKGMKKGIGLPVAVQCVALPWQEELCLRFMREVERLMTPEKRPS
Nature of the experiment: In vitro competitive activity-based protein profiling, mouse FAAH. As to conditions: for inhibition at 1 µM: read-out: FAAH % inh. 1 μM (mouse); for inhibition at 10 µM: read-out: FAAH % inh. at 10 μM (mouse). It is filed as biochemical. As for the experimental part: as §1, §2

20 compounds from patent publication US10385057B2, “Pyrazole compounds and methods of making and using same” (Lundbeck La Jolla Research Center, Inc., priority 2015, dated 2019) can be followed below.

Where only a bound is given, the exact number is not on record here.

For the compound `CNC(=O)c1cnn(C(=O)N2CC3CN(Cc4ccc(Cl)cc4)CC3C2)c1` (stereo not shown) [Example 17, 1-(5-(4-chlorobenzyl)octahydropyrrolo[3,4-c]pyrrole-2-carbonyl)-N-methyl-1H-pyrazole-4-carboxamide], on MAGL, the IC50 was in the range of 1000 to 10000 nM and the inhibition at 1 µM was in the range of 50 to 75%. Also, at FAAH, the IC50 was at most 100 nM and the inhibition at 1 µM was at least 75%.

With `NC(=O)c1cnn(C(=O)N2CC3CN(Cc4ccc(C(F)(F)F)cc4)CC3C2)c1` (stereo not shown) [Example 18, 1-(5-(4-(trifluoromethyl)benzyl)octahydropyrrolo[3,4-c]pyrrole-2-carbonyl)-1H-pyrazole-4-carboxamide], the IC50 at MAGL and at FAAH was at most 100 nM throughout. Besides, the inhibition at 1 µM on MAGL and at FAAH was at least 75% in each case.

On to `CNC(=O)c1cnn(C(=O)N2CC3CN(Cc4ccc(C(F)(F)F)cc4)CC3C2)c1` (stereo not shown) [Example 19, N-methyl-1-(5-(4-(trifluoromethyl)benzyl)octahydropyrrolo[3,4-c]pyrrole-2-carbonyl)-1H-pyrazole-4-carboxamide], for which, on MAGL, the IC50 was in the range of 100 to 1000 nM and the inhibition at 1 µM was at least 75%. Also, on FAAH, the IC50 was at most 100 nM and the inhibition at 1 µM is at least 75%.

Take `NC(=O)c1cnn(C(=O)N2CC3CN(Cc4cc(Cl)ccc4Cl)CC3C2)c1` (stereo not shown) [Example 20, 1-(5-(2,5-dichlorobenzyl)octahydropyrrolo[3,4-c]pyrrole-2-carbonyl)-1H-pyrazole-4-carboxamide]: on MAGL, the IC50 was at most 100 nM and the inhibition at 1 µM was at least 75%. Moreover, on FAAH, the half-inhibitory concentration (IC50) is at most 100 nM and the inhibition at 1 µM is at least 75%.

As for `CNC(=O)c1cnn(C(=O)N2CC3CN(Cc4cc(Cl)ccc4Cl)CC3C2)c1` (stereo not shown) [Example 21, 1-(5-(2,5-dichlorobenzyl)octahydropyrrolo[3,4-c]pyrrole-2-carbonyl)-N-methyl-1H-pyrazole-4-carboxamide], on MAGL, the IC50 was 100 to 1000 nM and the inhibition at 1 µM is at least 75%. On FAAH, the IC50 is at most 100 nM and the inhibition at 1 µM is at least 75%.

For the compound `O=C(c1cnn(C(=O)N2CC3CN(Cc4cc(Cl)ccc4Cl)CC3C2)c1)N1CCCC1` (stereo not shown) [Example 22, (5-(2,5-dichlorobenzyl)hexahydropyrrolo[3,4-c]pyrrol-2(1H)-yl)(4-(pyrrolidine-1-carbonyl)-1H-pyrazol-1-yl)methanone], the inhibition at 1 µM at MAGL and on FAAH was at least 75% each time.

`NC(=O)c1cnn(C(=O)N2CC3CN(Cc4cccc(C(F)(F)F)c4)CC3C2)c1` (stereo not shown) [Example 23, 1-(5-(3-(trifluoromethyl)benzyl)octahydropyrrolo[3,4-c]pyrrole-2-carbonyl)-1H-pyrazole-4-carboxamide]: the inhibition at 1 µM on MAGL and on FAAH was at least 75% in each case.

Consider `CNC(=O)c1cnn(C(=O)N2CC3CN(Cc4cccc(C(F)(F)F)c4)CC3C2)c1` (stereo not shown) [Example 24, N-methyl-1-(5-(3-(trifluoromethyl)benzyl)octahydropyrrolo[3,4-c]pyrrole-2-carbonyl)-1H-pyrazole-4-carboxamide], for which, at MAGL, the IC50 was at most 100 nM and the inhibition at 1 µM was at least 75%. Moreover, on FAAH, the IC50 was at most 100 nM and the inhibition at 1 µM is at least 75%.

Regarding `NC(=O)c1cnn(C(=O)N2CC3CN(Cc4cc(Cl)cc(C(F)(F)F)c4)CC3C2)c1` (stereo not shown) [Example 25, 1-(5-(3-chloro-5-(trifluoromethyl)benzyl)octahydropyrrolo[3,4-c]pyrrole-2-carbonyl)-1H-pyrazole-4-carboxamide], at MAGL, the IC50 was at most 100 nM and the inhibition at 1 µM is at least 75%. At FAAH, the half-maximal inhibitory concentration (IC50) is at most 100 nM and the inhibition at 1 µM is at least 75%.

`CNC(=O)c1cnn(C(=O)N2CC3CN(Cc4cc(Cl)cc(C(F)(F)F)c4)CC3C2)c1` (stereo not shown) [Example 26, 1-(5-(3-chloro-5-(trifluoromethyl)benzyl)octahydropyrrolo[3,4-c]pyrrole-2-carbonyl)-N-methyl-1H-pyrazole-4-carboxamide]: the inhibition at 1 µM on MAGL and on FAAH was at least 75% throughout.

As for `CNC(=O)c1cnn(C(=O)N2CC3CN(Cc4ccc(N5CCOCC5)cc4C(F)(F)F)CC3C2)c1` (stereo not shown) [Example 27, N-methyl-1-(5-(4-morpholino-2-(trifluoromethyl)benzyl)octahydropyrrolo[3,4-c]pyrrole-2-carbonyl)-1H-pyrazole-4-carboxamide], the inhibition at 1 µM at MAGL and at FAAH was at least 75% each time.

Consider `O=C(c1cnn(C(=O)N2CCC3(CCN(Cc4cc(Cl)ccc4Cl)C3)C2)c1)N1CCCC1` (stereo not shown) [Example 28, (1-(7-(2,5-dichlorobenzyl)-2,7-diazaspiro[4.4]nonane-2-carbonyl)-1H-pyrazol-4-yl)(pyrrolidin-1-yl)methanone], for which the results for the inhibition at 1 µM on MAGL and on FAAH were 25 to 50% and at least 75%, respectively.

`O=C(c1cnn(C(=O)N2CCC3(CCN(Cc4cc(Cl)ccc4Cl)C3)C2)c1)N1CCOCC1` (stereo not shown) [Example 29, (1-(7-(2,5-dichlorobenzyl)-2,7-diazaspiro[4.4]nonane-2-carbonyl)-1H-pyrazol-4-yl)(morpholino)methanone]: the inhibition at 1 µM on MAGL was 0 to 25%; at FAAH, at least 75%. For the same compound, the inhibition at 10 µM at MAGL and on FAAH was 100% in each case.

Regarding `O=C(c1cnn(C(=O)N2CCC3(CCN(Cc4cc(Cl)ccc4Cl)C3)C2)c1)N1CCN(C2CC2)CC1` (stereo not shown) [Example 30, (4-cyclopropylpiperazin-1-yl)(1-(7-(2,5-dichlorobenzyl)-2,7-diazaspiro[4.4]nonane-2-carbonyl)-1H-pyrazol-4-yl)methanone], the inhibition at 1 µM at MAGL and on FAAH was at least 75% throughout.

With `O=C(c1cnn(C(=O)N2CCC3(CCN(Cc4cccc(C(F)(F)F)c4)C3)C2)c1)N1CCCC1` (stereo not shown) [Example 31, pyrrolidin-1-yl(1-(7-(3-(trifluoromethyl)benzyl)-2,7-diazaspiro[4.4]nonane-2-carbonyl)-1H-pyrazol-4-yl)methanone], the inhibition at 1 µM is 25 to 50% at MAGL and at least 75% at FAAH.

Take `O=C(c1cnn(C(=O)N2CCC3(CCN(Cc4cccc(C(F)(F)F)c4)C3)C2)c1)N1CCOCC1` (stereo not shown) [Example 32, (4-(morpholine-4-carbonyl)-1H-pyrazol-1-yl)(7-(3-(trifluoromethyl)benzyl)-2,7-diazaspiro[4.4]nonan-2-yl)methanone]: on MAGL, the inhibition at 1 µM was 0 to 25% and the inhibition at 10 µM is 50%. For the same compound, on FAAH, the inhibition at 1 µM was at least 75% and the inhibition at 10 µM is 100%.

For `O=C(c1cnn(C(=O)N2CCC3(CCN(Cc4cccc(C(F)(F)F)c4)C3)C2)c1)N1CCN(C2CC2)CC1` (stereo not shown) [Example 33, (4-cyclopropylpiperazin-1-yl)(1-(7-(3-(trifluoromethyl)benzyl)-2,7-diazaspiro[4.4]nonane-2-carbonyl)-1H-pyrazol-4-yl)methanone], the inhibition at 1 µM is at least 75% on MAGL and 50 to 75% on FAAH.

In the case of `O=C(c1cnn(C(=O)N2CCC3(CCN(Cc4cc(Cl)cc(C(F)(F)F)c4)C3)C2)c1)N1CCCC1` (stereo not shown) [Example 34, (1-(7-(3-chloro-5-(trifluoromethyl)benzyl)-2,7-diazaspiro[4.4]nonane-2-carbonyl)-1H-pyrazol-4-yl)(pyrrolidin-1-yl)methanone], the inhibition at 1 µM at MAGL and on FAAH was at least 75% each time.

Take `O=C(c1cnn(C(=O)N2CCC3(CCN(Cc4cc(Cl)cc(C(F)(F)F)c4)C3)C2)c1)N1CCOCC1` (stereo not shown) [Example 35, (1-(7-(3-chloro-5-(trifluoromethyl)benzyl)-2,7-diazaspiro[4.4]nonane-2-carbonyl)-1H-pyrazol-4-yl)(morpholino)methanone]: the inhibition at 1 µM at MAGL is at least 75%; on FAAH, 25 to 50%.

Take `O=C(c1cnn(C(=O)N2CCC3(CCN(Cc4cc(Cl)cc(C(F)(F)F)c4)C3)C2)c1)N1CCN(C2CC2)CC1` (stereo not shown) [Example 36, (1-(7-(3-chloro-5-(trifluoromethyl)benzyl)-2,7-diazaspiro[4.4]nonane-2-carbonyl)-1H-pyrazol-4-yl)(4-cyclopropylpiperazin-1-yl)methanone]: the inhibition at 1 µM on MAGL and on FAAH was at least 75% throughout.

The IC50 is the concentration needed to halve the response being measured. Lower therefore signals higher potency.
